One assay concerns the target BRD4(BD1) (Homo sapiens (Human), UniProt O60885). As to the kind of experiment: In vitro enzyme inhibition assay (BRD4 AlphaScreen). In kind it is binding. The procedure, abridged: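 AlphaScreen proximity readout, using streptavidin donor and Ni-chelate acceptor beads at 5 μg/mL final, monitors biotin-H4 tetraacetylated peptide interaction with purified His-tagged BRD4.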

In assay [1] the test system is Raji, human Burkitts lymphoma cells. Nature of the assay: Cell-MTS proliferation assay, Raji. In kind it is cell-based. As to conditions: Homo sapiens, 168 hr. The procedure, abridged: (§1)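 Cells were seeded per 96-well at densities giving ~90% confluence by day 7 (Raji 15,000, HL-60 5,000, NCI-H460 3,000) and dosed 24 hr later with an 11-point dilution, 100 μM to 2.0 nM final. Seven-day MTS colorimetric read at OD490; IC50 from background-subtracted, DMSO-normalised values.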

Assay [2] concerns HL-60, human proleukemia cells. As to the kind of experiment: Cell-MTS proliferation assay, HL-60. The assay is classed as cell-based. Particulars: Homo sapiens, 168 hr. The procedure, abridged: as §1
Assay [3] concerns NCI-H460, human non-small cell lung cancer cells. Nature of the assay: Cell-MTS proliferation assay, NCI-H460. The assay is classed as cell-based. Particulars: Homo sapiens, 168 hr. The procedure, abridged: as §1
[4] abbreviates: in vitro enzyme inhibition assay.
[5] abbreviates: NCI-H460, Cell-MTS proliferation.
The mark [6] stands for this setting: Cell-MTS proliferation, Raji cells.
Setting [7] is: Cell-MTS proliferation, HL-60 cells.
Setting [8] is: Cell-MTS proliferation, NCI-H460 cells.
Where [9] appears, read: Raji, Cell-MTS, class symbols A/B/C.
Setting [10] is: HL-60, Cell-MTS, class symbols A/B/C.
The mark [11] stands for this setting: NCI-H460, Cell-MTS, class symbols A/B/C.

Drawing on patent publication US10023592B2, “Bromodomain inhibitors” (Celgene Quanticel Research, Inc., priority 2013, dated 2018), this text covers IC50 for 24 compounds.

With `CCS(=O)(=O)Nc1ncc(OCC2CC2)c(-c2cn(C)c(=O)c3occc23)n1` [Example 264, N-[5-(cyclopropylmethoxy)-4-(6-methyl-7-oxofuro[2,3-c]pyridin-4-yl)pyrimidin-2-yl]ethanesulfonamide], the half-inhibitory concentration (IC50) on BRD4(BD1) (setting [4]) was < 500 nM; in assay [1] (Raji, Cell-MTS proliferation), < 500 nM; in assay [2] (HL-60, Cell-MTS proliferation), < 500 nM; in assay [3] (setting [5]), > 5000 nM.

For `Cn1cc(-c2cn(CS(C)(=O)=O)c(=O)cc2OCC2CC2)c2ccccc2c1=O` [Example 384, 4-[4-(cyclopropylmethoxy)-1-(methylsulfonylmethyl)-6-oxopyridin-3-yl]-2-methylisoquinolin-1-one], the IC50 against BRD4(BD1) (setting [4]) was < 500 nM; in assay [1] (setting [6]) it was 500 to 5000 nM; in assay [2] (setting [7]) it was < 500 nM; in assay [3] (setting [8]), > 5000 nM.

Turning to `Cc1cc(-c2cc(S(C)(=O)=O)ccc2NC2CCCC2)cn(C)c1=O` [Example 417, 5-[2-(cyclopentylamino)-5-methylsulfonylphenyl]-1,3-dimethylpyridin-2-one], the IC50 on BRD4(BD1) (setting [4]) is < 500 nM; in assay [1] (setting [6]) it was < 500 nM; in assay [2] (setting [7]), < 500 nM; in assay [3] (setting [8]), > 5000 nM.

Consider `CNc1cc(-c2ccc(OC)c(NS(C)(=O)=O)c2)cn(C)c1=O` [Example 110, N-[2-methoxy-5-[1-methyl-5-(methylamino)-6-oxopyridin-3-yl]phenyl]methanesulfonamide], for which the IC50 was < 500 nM at BRD4(BD1) (class symbols A/B/C), > 5000 nM in assay [1] (setting [9]), 500 to 5000 nM in assay [2] (setting [10]) and > 5000 nM in assay [3] (setting [11]).

In the case of `CCc1ccc(S(C)(=O)=O)cc1-c1ccc(=O)n(C)c1` [Example 312, 5-(2-ethyl-5-methylsulfonylphenyl)-1-methylpyridin-2-one], the IC50 at BRD4(BD1) (setting [4]) was 500 to 5000 nM; in assay [1] (Raji, Cell-MTS proliferation), > 5000 nM; in assay [2] (HL-60, Cell-MTS proliferation) it was > 5000 nM; in assay [3] (setting [5]), > 5000 nM.

In the case of `Cn1cc(-c2cc(S(N)(=O)=O)ccc2Oc2ccc(F)cc2F)ccc1=O` [Example 118, 4-(2,4-difluorophenoxy)-3-(1-methyl-6-oxopyridin-3-yl)benzenesulfonamide], the IC50 is < 500 nM against BRD4(BD1) (class symbols A/B/C), < 500 nM in assay [1] (setting [9]), < 500 nM in assay [2] (setting [10]) and > 5000 nM in assay [3] (setting [11]).

Consider `Cc1cnn(-c2ccc3c(=O)n(C)cc(-c4cc(S(C)(=O)=O)ccc4OCC4CC4)c3c2)c1` [Example 128, 4-[2-(cyclopropylmethoxy)-5-methylsulfonylphenyl]-2-methyl-6-(4-methylpyrazol-1-yl)isoquinolin-1-one], for which the IC50 was < 500 nM at BRD4(BD1) (class symbols A/B/C), < 500 nM in assay [1] (setting [9]), < 500 nM in assay [2] (setting [10]) and > 5000 nM in assay [3] (setting [11]).

On to `CCS(=O)(=O)Nc1cnc(OCC2CC2)c(-c2cn(C)c(=O)c3occc23)c1` [Example 257, N-[6-(cyclopropylmethoxy)-5-(6-methyl-7-oxofuro[2,3-c]pyridin-4-yl)pyridine-3-yl]ethanesulfonamide], for which the IC50 against BRD4(BD1) (setting [4]) was < 500 nM; in assay [1] (Raji, Cell-MTS proliferation), < 500 nM; in assay [2] (HL-60, Cell-MTS proliferation) it was < 500 nM; in assay [3] (setting [5]), > 5000 nM.

Consider `Cc1cc(-c2cc(NS(C)(=O)=O)ccc2OC2CCC(F)(F)CC2)cn(C)c1=O` [Example 447, N-[4-(4,4-difluorocyclohexyl)oxy-3-(1,5-dimethyl-6-oxopyridin-3-yl)phenyl]methanesulfonamide], for which the 50% inhibitory concentration (IC50) on BRD4(BD1) (setting [4]) was < 500 nM; in assay [1] (setting [6]) it was < 500 nM; in assay [2] (setting [7]), < 500 nM; in assay [3] (setting [8]) it was > 5000 nM.

As to `Cn1cc(-c2cc(S(C)(=O)=O)ccc2OCC2CC2)c2c(c1=O)CCCC2` [Example 217, 4-[2-(cyclopropylmethoxy)-5-methylsulfonylphenyl]-2-methyl-5,6,7,8-tetrahydroisoquinolin-1-one], the IC50 on BRD4(BD1) (setting [4]) was < 500 nM; in assay [1] (Raji, Cell-MTS proliferation), < 500 nM; in assay [2] (HL-60, Cell-MTS proliferation), < 500 nM; in assay [3] (setting [5]), > 5000 nM.

Regarding `Cn1cc(-c2ccc3c(=O)n(C)cc(-c4cc(S(C)(=O)=O)ccc4OCC4CC4)c3c2)cn1` [Example 46, 4-[2-(cyclopropylmethoxy)-5-methylsulfonylphenyl]-2-methyl-6-(1-methylpyrazol-4-yl)isoquinolin-1-one], the IC50 was < 500 nM against BRD4(BD1) (class symbols A/B/C), < 500 nM in assay [1] (setting [9]), < 500 nM in assay [2] (setting [10]) and > 5000 nM in assay [3] (setting [11]).

`CCS(=O)(=O)Nc1ncc(OCC2CC2)c(-c2cn(C)c(=O)c3c2CCCC3)n1` [Example 164, N-[5-(cyclopropylmethoxy)-4-(2-methyl-1-oxo-5,6,7,8-tetrahydroisoquinolin-4-yl)pyrimidin-2-yl]ethanesulfonamide]: the IC50 against BRD4(BD1) (setting [4]) was < 500 nM; in assay [1] (Raji, Cell-MTS proliferation), < 500 nM; in assay [2] (HL-60, Cell-MTS proliferation), 500 to 5000 nM; in assay [3] (setting [5]), > 5000 nM.

For `CCS(=O)(=O)Nc1ncc(Oc2ccc(F)cc2F)c(-c2cn(C)c(=O)c3ccccc23)n1` [Example 170, N-[5-(2,4-difluorophenoxy)-4-(2-methyl-1-oxoisoquinolin-4-yl)pyrimidin-2-yl]ethanesulfonamide], the half-inhibitory concentration (IC50) at BRD4(BD1) (setting [4]) was < 500 nM; in assay [1] (Raji, Cell-MTS proliferation), < 500 nM; in assay [2] (HL-60, Cell-MTS proliferation), < 500 nM; in assay [3] (setting [5]), > 5000 nM.

Consider `Cn1cc(-c2nc(NS(C)(=O)=O)ncc2OCC2CC2)c2ccccc2c1=O` [Example 152, N-[5-(cyclopropylmethoxy)-4-(2-methyl-1-oxoisoquinolin-4-yl)pyrimidin-2-yl]methanesulfonamide], for which the IC50 against BRD4(BD1) (setting [4]) is < 500 nM; in assay [1] (Raji, Cell-MTS proliferation), < 500 nM; in assay [2] (HL-60, Cell-MTS proliferation) it was < 500 nM; in assay [3] (setting [5]), > 5000 nM.

As for `CCCCc1cnc(NS(=O)(=O)CC)nc1-c1cc(C)c(=O)n(C)c1` [Example 310, N-[5-butyl-4-(1,5-dimethyl-6-oxopyridin-3-yl)pyrimidin-2-yl] ethanesulfonamide], the IC50 at BRD4(BD1) (setting [4]) is < 500 nM; in assay [1] (Raji, Cell-MTS proliferation), < 500 nM; in assay [2] (HL-60, Cell-MTS proliferation), < 500 nM; in assay [3] (setting [5]), > 5000 nM.

With `Cc1cc(-c2cc(S(C)(=O)=O)ccc2O[C@H]2CC[C@H](N)CC2)cn(C)c1=O` [Example 404, 5-[2-(trans-4-aminocyclohexyl)oxy-5-methylsulfonylphenyl]-1,3-dimethylpyridin-2-one], the IC50 against BRD4(BD1) (setting [4]) is < 500 nM; in assay [1] (setting [6]) it was > 5000 nM; in assay [2] (setting [7]), < 500 nM; in assay [3] (setting [8]), > 5000 nM.

Take `CCS(=O)(=O)Nc1ncc(OCC2CC2)c(-c2cn(C)c(=O)c3ccccc23)n1` [Example 155, N-[5-(cyclopropylmethoxy)-4-(2-methyl-1-oxoisoquinolin-4-yl)pyrimidin-2-yl]ethanesulfonamide]: the IC50 was < 500 nM on BRD4(BD1) (setting [4]); < 500 nM in assay [1] (Raji, Cell-MTS proliferation); < 500 nM in assay [2] (HL-60, Cell-MTS proliferation); > 5000 nM in assay [3] (setting [5]).

`Cn1cc(-c2cc(S(C)(=O)=O)ccc2NC(=O)C2CC2)c2ccccc2c1=O` [Example 220, N-[2-(2-methyl-1-oxoisoquinolin-4-yl)-4-methylsulfonylphenyl]cyclopropanecarboxamide]: the IC50 is 500 to 5000 nM against BRD4(BD1) (setting [4]); > 5000 nM in assay [1] (Raji, Cell-MTS proliferation); > 5000 nM in assay [2] (HL-60, Cell-MTS proliferation); > 5000 nM in assay [3] (setting [5]).

`CCS(=O)(=O)c1ccc(OCC2CC2)c(-c2cc(Cl)c(=O)n(C)c2)c1` [Example 272, 3-chloro-5-[2-(cyclopropylmethoxy)-5-ethylsulfonylphenyl]-1-methylpyridin-2-one]: the IC50 against BRD4(BD1) (setting [4]) is < 500 nM; in assay [1] (Raji, Cell-MTS proliferation), < 500 nM; in assay [2] (HL-60, Cell-MTS proliferation) it was < 500 nM; in assay [3] (setting [5]), > 5000 nM.

Regarding `Cc1cc(=O)n(C)cc1-c1cc(S(C)(=O)=O)ccc1OCC1CC1` [Example 477, 5-[2-(cyclopropylmethoxy)-5-methylsulfonylphenyl]-1,4-dimethylpyridin-2-one], the IC50 against BRD4(BD1) (setting [4]) is < 500 nM; in assay [1] (setting [6]) it was 500 to 5000 nM; in assay [2] (setting [7]) it was < 500 nM; in assay [3] (setting [8]), > 5000 nM.

Regarding `CCS(=O)(=O)Nc1ccc(Oc2ccc(F)cc2F)c(-c2cc(OC(F)F)c(=O)n(C)c2)c1` [Example 289, N-[3-[5-(difluoromethoxy)-1-methyl-6-oxopyridin-3-yl]-4-(2,4-difluorophenoxy)phenyl]ethanesulfonamide], the IC50 on BRD4(BD1) (setting [4]) is < 500 nM; in assay [1] (Raji, Cell-MTS proliferation), < 500 nM; in assay [2] (HL-60, Cell-MTS proliferation), < 500 nM; in assay [3] (setting [5]) it was > 5000 nM.

Consider `Cn1cc(-c2cc(S(C)(=O)=O)ccc2OCC2CC2)c2ccc(F)cc2c1=O` [Example 91, 4-[2-(cyclopropylmethoxy)-5-methylsulfonylphenyl]-7-fluoro-2-methyl-isoquinolin-1-one], for which the IC50 against BRD4(BD1) (class symbols A/B/C) is < 500 nM; in assay [1] (setting [9]), < 500 nM; in assay [2] (setting [10]), < 500 nM; in assay [3] (setting [11]), > 5000 nM.

For the compound `Cn1cc(-c2cc(S(C)(=O)=O)ccc2OCC2CC2)ccc1=O` [Example 98, 5-[2-(cyclopropylmethoxy)-5-methylsulfonylphenyl]-1-methylpyridin-2-one], the IC50 against BRD4(BD1) (class symbols A/B/C) is 500 to 5000 nM; in assay [1] (setting [9]), 500 to 5000 nM; in assay [2] (setting [10]), 500 to 5000 nM; in assay [3] (setting [11]), > 5000 nM.

With `CCS(=O)(=O)Nc1ncc(Oc2ccc(F)cc2F)c(-c2cn(C)c(=O)c3c2CCCC3)n1` [Example 173, N-[5-(2,4-difluorophenoxy)-4-(2-methyl-1-oxo-5,6,7,8-tetrahydroisoquinolin-4-yl)pyrimidin-2-yl]ethanesulfonamide], the IC50 against BRD4(BD1) (setting [4]) was < 500 nM; in assay [1] (Raji, Cell-MTS proliferation), 500 to 5000 nM; in assay [2] (HL-60, Cell-MTS proliferation), 500 to 5000 nM; in assay [3] (setting [5]), > 5000 nM.
